The text below walks through data of ChEMBL document CHEMBL1150048, “Echinofuran, a New Furanosesquiterpene from the Gorgonian Echinogorgia praelonga” (J Nat Prod, 1992).

One data set concerns Poecilia reticulata. Briefly: Ichthyotoxicity against Poecilia reticulata up to 10 ppm. In kind it is organism-based. As to conditions: in vivo.
The subject of another data set is Aspergillus sp. The data set is described as follows: Antimicrobial activity against Aspergillus sp. at 100 ug/8 mm disk. In kind it is functional, organism-based.
Data set [1] is described as follows: Inhibition of cell division in sea urchin fertilized egg at 1 ug/ml. As to conditions: echinoidea, fertilized sea urchin eggs.
The subject of another data set is Escherichia coli. Briefly: Antimicrobial activity against Escherichia coli at 100 ug/8 mm disk. It is filed as functional, organism-based.
For the next data set, the system named is Bacillus subtilis. Briefly: Antimicrobial activity against Bacillus subtilis at 100 ug/8 mm disk. In kind it is functional, organism-based.
Another data set relates to Staphylococcus aureus. The data set is described as follows: Antimicrobial activity against Staphylococcus aureus at 100 ug/8 mm disk. In kind it is functional, organism-based.
In a further data set the test system is Cladosporium. The data set is described as follows: Antimicrobial activity against Cladosporium at 100 ug/8 mm disk. It is filed as functional, organism-based.

Molecules are shown by their SMILES. The source made the active and inactive calls. No cut-off for these calls is given here.

Regarding `C=C1CCC2=C(C)Cc3occ(C)c3C[C@@H]12` [ECHINOFURAN], in the data set on Poecilia reticulata, the Activity entry was “Non-toxic”. For the same compound, the result with Aspergillus sp., in the data set with Escherichia coli, with Bacillus subtilis, with Staphylococcus aureus and in the data set with Cladosporium was inactive. Moreover, the inhibition (as a rule, the share of the control response that was lost under treatment) at 1 ug/ml in data set [1] turned out to be 90%.
